Test [1] in a line: Agonist activity at human GPR120 long isoform transfected in CHO-K1 cells by beta-arrestin recruitment assay. It counts as cell-based. Background: Activated receptors often draw arrestin, which recruitment assays turn into a signal.
A short description of test [2]: Agonist activity at human GPR120 long isoform transfected in HEK293 cells assessed as calcium flux by FLIPR assay. Type of test: cell-based. A general note: A change in cytosolic calcium serves as a functional read-out for many receptors and channels.
Test [3] can be described thus: Agonist activity at human GPR120 short isoform transfected in CHO-K1 cells by beta-arrestin recruitment assay. It counts as cell-based.
The subject of test [4] is Mus musculus. Nature of the test: Antidiabetic activity in C57bl6 mouse assessed as glucose level at 3 mg/kg by oral glucose tolerance test. It counts as functional.
Test [5] deals with Mus musculus. Nature of the test: Antidiabetic activity in C57bl6 mouse assessed as glucose level at 3 mg/kg by intraperitoneal glucose tolerance test. It counts as functional.
In test [6] the test system is Mus musculus. Nature of the test: Antidiabetic activity in DIO mouse assessed as glucose level at 10 mg/kg measured from -30 to 90 mins by oral glucose tolerance test. Type of test: functional.
Test [7] deals with Mus musculus. Nature of the test: Antidiabetic activity in C57bl6 mouse assessed as glucose level at 30 mg/kg by intraperitoneal glucose tolerance test. It counts as functional.
Test [8] concerns Mus musculus. Nature of the test: Antidiabetic activity in C57bl6 mouse assessed as glucose level at 10 mg/kg by intraperitoneal glucose tolerance test. Type of test: functional.
The nature of test [9]: Agonist activity at human GPR120 short isoform transfected in HEK293 cells assessed as calcium flux by FLIPR assay. It counts as cell-based.

These results are taken from ChEMBL document CHEMBL3751700, “Therapeutic Potential of GPR120 Agonists for the Treatment of Type 2 Diabetes” (ACS Med Chem Lett, 2015).

What is called EC50 is the midpoint of the concentration-response curve. Take `Cc1ccccc1-c1snc(Cl)c1COc1c(F)cc(CCC(=O)O)cc1F`: the EC50 in test [1] worked out at 322 nM; in [2], 344 nM; in test [3] it was 990 nM.
Turning to `O=C(O)CCc1cc(F)c(OCc2c(C3CCCC3)nsc2C(F)(F)F)c(F)c1`, the results for the Activity in [4], in test [5] and in [6] were -37%, -14% and -0.52%, respectively. For the same compound, the results for the concentration for a half-maximal effect (EC50) in [1], in [2] and in test [3] were 278 nM, 37 nM and 139 nM, respectively.
As to `Cc1c(CCC(=O)O)ccc(OCc2sc(F)cc2-c2ccc(Cl)cc2)c1C`, the figures for the EC50 in test [2] and in [3] were 49 nM and 83 nM, respectively.
For the compound `Cc1c(CCC(=O)O)ccc(OCc2c(-c3ccc(Cl)cc3)nsc2C(F)(F)F)c1C`, the Activity is given as -34% in test [5], -53% in test [7] and -61% in test [8]. Besides, the EC50 in test [1] turned out to be 141 nM; in test [2] it was 155 nM; in test [3], 100 nM.
Take `CCc1ccc(-c2cc(F)sc2COc2ccc(CCC(=O)O)c(C)c2C)cc1`: the EC50 in test [1] is 218 nM; in test [2], 24 nM; in [3], 205 nM.
In the case of `OCCCc1cc(F)c(OCc2c(-c3ccc(Cl)cc3F)nsc2C(F)(F)F)c(F)c1`, the EC50 in test [9] turned out to be 139 nM; in test [3], 80 nM.
